Target: T1, PKG-1α (Homo sapiens, UniProt Q13976, Y247F)
T1 sequence (Q13976 2-671 Y247F): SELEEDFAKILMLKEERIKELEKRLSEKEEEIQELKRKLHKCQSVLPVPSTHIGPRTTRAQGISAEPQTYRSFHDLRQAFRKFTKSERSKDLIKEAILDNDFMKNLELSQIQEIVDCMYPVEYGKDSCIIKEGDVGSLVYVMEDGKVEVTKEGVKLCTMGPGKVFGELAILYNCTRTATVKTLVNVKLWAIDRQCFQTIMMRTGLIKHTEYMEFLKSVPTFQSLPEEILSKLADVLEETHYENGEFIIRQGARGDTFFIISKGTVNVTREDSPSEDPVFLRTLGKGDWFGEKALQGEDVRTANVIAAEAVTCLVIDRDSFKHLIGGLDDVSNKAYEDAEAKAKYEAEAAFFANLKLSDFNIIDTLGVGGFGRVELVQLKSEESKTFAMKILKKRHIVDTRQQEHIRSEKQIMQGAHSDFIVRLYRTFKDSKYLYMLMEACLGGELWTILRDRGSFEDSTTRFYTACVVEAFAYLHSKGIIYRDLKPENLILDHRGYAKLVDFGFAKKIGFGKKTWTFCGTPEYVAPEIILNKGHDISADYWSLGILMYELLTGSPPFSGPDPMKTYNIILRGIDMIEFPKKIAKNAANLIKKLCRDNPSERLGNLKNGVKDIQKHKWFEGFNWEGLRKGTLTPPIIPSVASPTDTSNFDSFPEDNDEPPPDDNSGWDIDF
Assay: [3H]cGMP binding assay
Design: transfected with an expression plasmid containing a full length WT-PKG-1α cDNA; made in house; host or cells: HEK-293T (methods); the results paragraph b527 says PASMC
Conditions: SIN-1 500 μM 30 min
Experimental: HEK-293T cells were transiently transfected with either the WT-PKG-1α or the Y247FPKG-1α cDNA using Effectene transfection reagent (Qiagen), according to the manufacturer's instructions. Briefly, the cells were split the day before the transfection to low cell densities (25%) and were transfected 24 h later. After 48 h of transfection, the cells were incubated in DMEM serum free media containing 1% FBS and antibiotics for 4 h and then treated with or without SIN-1 (500 μM), for 30 min. This method produced an approximate 70% transfection efficiency of HEK-293T cells, as measured using green fluorescent protein vectors. […]
The batches of supernatant were pooled, and 2 μg of anti-PKG-1α antibody per mg of protein were added to the extract and rocked at 4° C. […] After 15 min of agitation at 4° C., the beads were pelleted by centrifugation, and the supernatant containing the PKG-1α protein was collected, quantified using Bradford reagent, and stored at −80° C.
To assay the binding of cGMP to WT- and Y247F-PKG-1α the enzymes were saturated with cGMP by incubating 50 μl aliquots of the diluted PKG constructs for 60 min at room temperature with 50 μl of [^3H]cGMP and 150 μl of cGMP-binding assay mixture (25 mM K2HPO4, 25 mM KH2PO4, 1 mM EDTA, pH 6.8, 2M NaCl, 200 μM 3-isobutyl-1-methylxanthine). […] The dissociation constant (Kd) values were determined using GraphPad Prism graphics.

3-morpholinosydnonimine N-ethylcarbamide [SIN-1]
Maximal [3H]cGMP binding to Y247F-PKG-1α: but not to the Y247F-PKG-1α mutant
